From ChEMBL document CHEMBL1275492, “In vitro activity of ceftobiprole against pathogens from two phase 3 clinical trials of complicated skin and skin structure infections” (2008)
Converted amounts (≈) assume the structure as drawn.

Experiments:
Type in all cases: functional
Staphylococcus aureus [1] = assay: Antibacterial activity against methicillin susceptible Staphylococcus aureus obtained from complicated skin and skin structure infections by agar dilution method
[2] = test system: Streptococcus constellatus; assay: Antibacterial activity against Streptococcus constellatus obtained from complicated skin and skin structure infections by agar dilution method
Aerococcus viridans = assay: Antibacterial activity against Aerococcus viridans obtained from complicated skin and skin structure infections by agar dilution method
Streptococcus pyogenes = assay: Antibacterial activity against Streptococcus pyogenes obtained from complicated skin and skin structure infections by agar dilution method
Staphylococcus warneri = assay: Antibacterial activity against coagulase-negative Staphylococcus warneri obtained from complicated skin and skin structure infections by agar dilution method
[3] = test system: Staphylococcus haemolyticus; assay: Antibacterial activity against coagulase-negative Staphylococcus haemolyticus obtained from complicated skin and skin structure infections by agar dilution method
Mammaliicoccus sciuri = assay: Antibacterial activity against coagulase-negative Staphylococcus sciuri obtained from complicated skin and skin structure infections by agar dilution method
[4] = Antibacterial activity against Streptococcus sp. 'group G' obtained from complicated skin and skin structure infections by agar dilution method
Streptococcus agalactiae = assay: Antibacterial activity against Streptococcus agalactiae obtained from complicated skin and skin structure infections by agar dilution method
Gemella morbillorum = assay: Antibacterial activity against Gemella morbillorum obtained from complicated skin and skin structure infections […]
[5] = test system: Staphylococcus intermedius; assay: Antibacterial activity against Staphylococcus intermedius obtained from complicated skin and skin structure infections by agar dilution method
Staphylococcus capitis = assay: Antibacterial activity against coagulase-negative Staphylococcus capitis obtained from complicated skin and skin structure infections by agar dilution method
Enterococcus faecalis = assay: Antibacterial activity against Enterococcus faecalis obtained from complicated skin and skin structure infections by agar dilution method
Gemella = assay: Antibacterial activity against Gemella spp. obtained from complicated skin and skin structure infections by agar dilution method
Micrococcus = assay: Antibacterial activity against Micrococcus spp. obtained from complicated skin and skin structure infections by agar dilution method
Lactococcus lactis = assay: Antibacterial activity against Lactococcus lactis obtained from complicated skin and skin structure infections by agar dilution method
[6] = test system: Staphylococcus lugdunensis; assay: Antibacterial activity against methicillin-resistant, oxacillin-susceptible, coagulase-negative, mecA-positive Staphylococcus lugdunensis obtained from complicated skin and skin structure infections by agar dilution method
Staphylococcus hominis = assay: Antibacterial activity against coagulase-negative Staphylococcus hominis obtained from complicated skin and skin structure infections by agar dilution method
[7] = test system: Staphylococcus saprophyticus; assay: Antibacterial activity against coagulase-negative Staphylococcus saprophyticus obtained from complicated skin and skin structure infections by agar dilution method
Staphylococcus aureus [8] = assay: Antibacterial activity against methicillin resistant Staphylococcus aureus obtained from complicated skin and skin structure infections by agar dilution method
[9] = test system: Staphylococcus lugdunensis; assay: Antibacterial activity against coagulase-negative Staphylococcus lugdunensis obtained from complicated skin and skin structure infections by agar dilution method
Enterococcus faecium = assay: Antibacterial activity against Enterococcus faecium obtained from complicated skin and skin structure infections by agar dilution method
Staphylococcus cohnii = assay: Antibacterial activity against coagulase-negative Staphylococcus cohnii obtained from complicated skin and skin structure infections by agar dilution method
[10] = Antibacterial activity against Streptococcus sp. 'group C' obtained from complicated skin and skin structure infections by agar dilution method
Staphylococcus aureus [11] = assay: Antibacterial activity against Staphylococcus aureus obtained from complicated skin and skin structure infections by agar dilution method
[12] = test system: Staphylococcus epidermidis; assay: Antibacterial activity against coagulase-negative Staphylococcus epidermidis obtained from complicated skin and skin structure infections by agar dilution method
Staphylococcus = assay: Antibacterial activity against methicillin-susceptible, coagulase-negative Staphylococcus obtained from complicated skin and skin structure infections by agar dilution method
Bacillus = assay: Antibacterial activity against Bacillus spp. obtained from complicated skin and skin structure infections by agar dilution method
Streptococcus mitis = assay: Antibacterial activity against Streptococcus mitis obtained from complicated skin and skin structure infections by agar dilution method

In the case of `CC[C@H]1OC(=O)[C@H](C)[C@@H](O[C@H]2C[C@@](C)(OC)[C@@H](O)[C@H](C)O2)[C@H](C)[C@@H](O[C@@H]2O[C@H](C)C[C@H](N(C)C)[C@H]2O)[C@](C)(O)C[C@@H](C)C(=O)[C@H](C)[C@@H](O)[C@]1(C)O` [ERYTHROMYCIN], the MIC50 (Staphylococcus aureus [1]) is reported as 0.25 µg/mL (≈ 0.341 µM), the MIC90 (Staphylococcus aureus [1]) is reported as > 8 µg/mL and the MIC50 [2] is reported as ≤ 0.06 µg/mL. For the same compound, the MIC90 [2] was 0.06 µg/mL (≈ 0.0818 µM), the MIC50 (Aerococcus viridans) was 0.03 µg/mL (≈ 0.0409 µM) and the MIC90 (Aerococcus viridans) was 8 µg/mL (≈ 10.9 µM). It also gave an MIC50 (Streptococcus pyogenes) of 0.06 µg/mL (≈ 0.0818 µM), an MIC90 (Streptococcus pyogenes) of 0.06 µg/mL (≈ 0.0818 µM) and an MIC50 (Staphylococcus warneri) of 0.25 µg/mL (≈ 0.341 µM). The MIC90 (Staphylococcus warneri) was > 16 µg/mL, the MIC50 [3] was 0.25 µg/mL (≈ 0.341 µM) and the MIC90 [3] was > 16 µg/mL. The MIC50 (Mammaliicoccus sciuri) was 0.25 µg/mL (≈ 0.341 µM), the MIC90 (Mammaliicoccus sciuri) was > 16 µg/mL and the MIC50 [4] was 0.06 µg/mL (≈ 0.0818 µM). The MIC90 [4] was 1 µg/mL (≈ 1.36 µM), the MIC50 (Streptococcus agalactiae) was 0.06 µg/mL (≈ 0.0818 µM) and the MIC90 (Streptococcus agalactiae) was > 16 µg/mL. The MIC50 (Gemella morbillorum) was 0.03 µg/mL (≈ 0.0409 µM), the MIC90 (Gemella morbillorum) was 8 µg/mL (≈ 10.9 µM) and the MIC [5] was ≤ 0.06 µg/mL. For the same compound, the MIC50 [5] was ≤ 0.06 µg/mL, the MIC90 [5] was 0.06 µg/mL (≈ 0.0818 µM) and the MIC50 (Staphylococcus capitis) was 0.25 µg/mL (≈ 0.341 µM). For the same compound, the MIC90 (Staphylococcus capitis) was > 16 µg/mL, the MIC50 (Enterococcus faecalis) was > 8 µg/mL and the MIC90 (Enterococcus faecalis) was > 16 µg/mL. For the same compound, the MIC50 (Gemella) was 0.03 µg/mL (≈ 0.0409 µM), the MIC90 (Gemella) was 8 µg/mL (≈ 10.9 µM) and the MIC50 (Micrococcus) was 0.03 µg/mL (≈ 0.0409 µM). The MIC90 (Micrococcus) was 8 µg/mL (≈ 10.9 µM), the MIC50 (Lactococcus lactis) was 0.03 µg/mL (≈ 0.0409 µM) and the MIC90 (Lactococcus lactis) was 8 µg/mL (≈ 10.9 µM). The MIC50 [6] was > 8 µg/mL, the MIC50 (Staphylococcus hominis) was 0.25 µg/mL (≈ 0.341 µM) and the MIC90 (Staphylococcus hominis) was > 16 µg/mL. For the same compound, the MIC50 [7] was 0.25 µg/mL (≈ 0.341 µM), the MIC90 [7] was > 16 µg/mL and the MIC50 (Staphylococcus aureus [8]) was > 8 µg/mL. The MIC50 [9] was 0.25 µg/mL (≈ 0.341 µM), the MIC90 [9] was > 16 µg/mL and the MIC50 (Enterococcus faecium) was 2 µg/mL (≈ 2.73 µM). For the same compound, the MIC50 (Staphylococcus cohnii) was 0.25 µg/mL (≈ 0.341 µM), the MIC90 (Staphylococcus cohnii) was > 16 µg/mL and the MIC50 [10] was 0.03 µg/mL (≈ 0.0409 µM). The MIC90 [10] was 0.12 µg/mL (≈ 0.164 µM), the MIC50 (Staphylococcus aureus [11]) was 0.25 µg/mL (≈ 0.341 µM) and the MIC90 (Staphylococcus aureus [11]) was > 16 µg/mL. For the same compound, the MIC50 [12] was 0.25 µg/mL (≈ 0.341 µM), the MIC90 [12] was > 16 µg/mL and the MIC50 (Staphylococcus) was 0.25 µg/mL (≈ 0.341 µM). The MIC90 (Staphylococcus) was > 8 µg/mL, the MIC50 (Bacillus) was 0.03 µg/mL (≈ 0.0409 µM) and the MIC90 (Bacillus) was 8 µg/mL (≈ 10.9 µM). The MIC (Streptococcus mitis) was ≤ 0.06 µg/mL, the MIC50 (Streptococcus mitis) was ≤ 0.06 µg/mL and the MIC90 (Streptococcus mitis) was 0.06 µg/mL (≈ 0.0818 µM).

In the case of `CCC[C@@H]1C[C@@H](C(=O)N[C@@H]([C@H]2O[C@H](SC)[C@H](O)[C@@H](O)[C@H]2O)[C@H](C)Cl)N(C)C1` [CLINDAMYCIN], the MIC50 (Staphylococcus aureus [1]) is reported as 0.12 µg/mL (≈ 0.282 µM), the MIC90 (Staphylococcus aureus [1]) is reported as 0.12 µg/mL (≈ 0.282 µM) and the MIC [2] is reported as ≤ 0.06 µg/mL. For the same compound, the MIC50 [2] was ≤ 0.06 µg/mL, the MIC90 [2] was 0.06 µg/mL (≈ 0.141 µM) and the MIC50 (Aerococcus viridans) was 1 µg/mL (≈ 2.35 µM). The MIC90 (Aerococcus viridans) was 4 µg/mL (≈ 9.41 µM), the MIC50 (Streptococcus pyogenes) was 0.06 µg/mL (≈ 0.141 µM) and the MIC90 (Streptococcus pyogenes) was 0.06 µg/mL (≈ 0.141 µM). It also gave an MIC50 (Staphylococcus warneri) of 0.06 µg/mL (≈ 0.141 µM), an MIC90 (Staphylococcus warneri) of 1 µg/mL (≈ 2.35 µM) and an MIC50 [3] of 0.06 µg/mL (≈ 0.141 µM). It also gave an MIC90 [3] of 1 µg/mL (≈ 2.35 µM), an MIC50 (Mammaliicoccus sciuri) of 0.06 µg/mL (≈ 0.141 µM) and an MIC90 (Mammaliicoccus sciuri) of 1 µg/mL (≈ 2.35 µM). The MIC50 [4] was 0.06 µg/mL (≈ 0.141 µM), the MIC90 [4] was 0.06 µg/mL (≈ 0.141 µM) and the MIC50 (Streptococcus agalactiae) was 0.06 µg/mL (≈ 0.141 µM). For the same compound, the MIC90 (Streptococcus agalactiae) was > 16 µg/mL, the MIC50 (Gemella morbillorum) was 1 µg/mL (≈ 2.35 µM) and the MIC90 (Gemella morbillorum) was 4 µg/mL (≈ 9.41 µM). It also gave an MIC50 [5] of 2 µg/mL (≈ 4.71 µM), an MIC90 [5] of 4 µg/mL (≈ 9.41 µM) and an MIC50 (Staphylococcus capitis) of 0.06 µg/mL (≈ 0.141 µM). The MIC90 (Staphylococcus capitis) was 1 µg/mL (≈ 2.35 µM), the MIC50 (Enterococcus faecalis) was 16 µg/mL (≈ 37.6 µM) and the MIC90 (Enterococcus faecalis) was > 8 µg/mL. It also gave an MIC50 (Gemella) of 1 µg/mL (≈ 2.35 µM), an MIC90 (Gemella) of 4 µg/mL (≈ 9.41 µM) and an MIC50 (Micrococcus) of 1 µg/mL (≈ 2.35 µM). The MIC90 (Micrococcus) was 4 µg/mL (≈ 9.41 µM), the MIC50 (Lactococcus lactis) was 1 µg/mL (≈ 2.35 µM) and the MIC90 (Lactococcus lactis) was 4 µg/mL (≈ 9.41 µM). The MIC50 [6] was 0.06 µg/mL (≈ 0.141 µM), the MIC90 [6] was > 8 µg/mL and the MIC50 (Staphylococcus hominis) was 0.06 µg/mL (≈ 0.141 µM). It also gave an MIC90 (Staphylococcus hominis) of 1 µg/mL (≈ 2.35 µM), an MIC50 [7] of 0.06 µg/mL (≈ 0.141 µM) and an MIC90 [7] of 1 µg/mL (≈ 2.35 µM). The MIC50 (Staphylococcus aureus [8]) was 0.12 µg/mL (≈ 0.282 µM), the MIC90 (Staphylococcus aureus [8]) was > 16 µg/mL and the MIC50 [9] was 0.06 µg/mL (≈ 0.141 µM). The MIC90 [9] was 1 µg/mL (≈ 2.35 µM), the MIC (Enterococcus faecium) was ≤ 0.06 µg/mL and the MIC50 (Enterococcus faecium) was 0.06 µg/mL (≈ 0.141 µM). For the same compound, the MIC50 (Staphylococcus cohnii) was 0.06 µg/mL (≈ 0.141 µM), the MIC90 (Staphylococcus cohnii) was 1 µg/mL (≈ 2.35 µM) and the MIC50 [10] was ≤ 0.06 µg/mL. For the same compound, the MIC90 [10] was 0.25 µg/mL (≈ 0.588 µM), the MIC50 [12] was 0.06 µg/mL (≈ 0.141 µM) and the MIC90 [12] was 1 µg/mL (≈ 2.35 µM). The MIC50 (Staphylococcus) was ≤ 0.06 µg/mL, the MIC90 (Staphylococcus) was 0.12 µg/mL (≈ 0.282 µM) and the MIC50 (Bacillus) was 1 µg/mL (≈ 2.35 µM). The MIC90 (Bacillus) was 4 µg/mL (≈ 9.41 µM), the MIC50 (Streptococcus mitis) was 2 µg/mL (≈ 4.71 µM) and the MIC90 (Streptococcus mitis) was 4 µg/mL (≈ 9.41 µM).
